Here are results for five compounds from ChEMBL document CHEMBL1201862, “PubChem BioAssay data set” (2004).

The structures appear in SMILES notation.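 All cell lines were grown in 96-well plates and treated with compound for 48 hours. The concentration for 50% growth inhibition is given as GI50.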 Activity calls are given as the source filed them. Rule as the data show it: active = GI50 up to about 1.1 µM and inactive = higher. Bounds are passed on as bounds.

What all share (assay): NCI anticancer screen, dose series, 48 h
For experiment [1], the system named is HCT-15.
Experiment [2] concerns M14.
The test system of experiment [3] is K562.
Experiment [4] has as its system HOP-62.
For experiment [5], the system named is HT-29.
Experiment [6] has as its system Malme-3M.
The test system of experiment [7] is ACHN.
The subject of experiment [8] is MDA-MB-231.
In experiment [9] the test system is T47D.
The test system of experiment [10] is PC-3.
The subject of experiment [11] is SK-MEL-28.
The subject of experiment [12] is MOLT-4.
Experiment [13] concerns UO-31.
Experiment [14] concerns 786-0.
Experiment [15] deals with SF-268.
Experiment [16] relates to LOX IMVI.
Experiment [17] relates to HOP-92.

As for `CCN(CC)CCOc1ccccc1/C=C/c1noc2ccccc12`, the GI50 was 10.5 µM in [1]; 2.54 µM (inactive) in [2]; 9.29 µM (inactive) in [3]; 14.4 µM (inactive) in experiment [4]; 2.27 µM (inactive) in experiment [5]; 1.01 µM (active) in experiment [6]. Moreover, the GI50 in experiment [7] is 12.7 µM (inactive); in experiment [8] it was 11.4 µM (inactive); in experiment [9], 12.6 µM (inactive); in [10] it was 4.89 µM (inactive); in experiment [11] it was 7.73 µM (inactive); in experiment [12], 12.1 µM (inactive). In addition, the GI50 was 6.11 µM (inactive) in experiment [13], 13.6 µM (inactive) in experiment [14] and 17.2 µM (inactive) in experiment [15].
Regarding `CC(=O)c1c[nH]cc1CO`, the GI50 was more than 10 µM in experiment [1]; > 10 µM (inactive) in [2]; > 10 µM (inactive) in experiment [3]; > 10 µM (inactive) in experiment [4]; > 10 µM (inactive) in [6]; > 10 µM (inactive) in experiment [16]. For the same compound, the GI50 in experiment [7], in experiment [9], in experiment [10], in experiment [11], in [12] and in experiment [13] was > 10 µM (inactive) throughout. Besides, the GI50 in experiment [14], in experiment [17] and in experiment [15] was > 10 µM (inactive) throughout.
With `N#CC(C#N)=C/C=C/c1ccccc1[N+](=O)[O-]`, the GI50 is 7.08 µM in [1]; 3.21 µM (inactive) in experiment [3]; > 10 µM (inactive) in experiment [4]; 6.62 µM (inactive) in experiment [5]; 3.73 µM (inactive) in experiment [6]; 2.52 µM (inactive) in experiment [16]. For the same compound, the GI50 in [7] was 4.26 µM (inactive); in [8] it was 2.59 µM (inactive); in experiment [9], > 10 µM (inactive); in experiment [10], 5.06 µM (inactive); in experiment [11], 2.11 µM (inactive); in experiment [12] it was 4.54 µM (inactive). For the same compound, the GI50 in experiment [13] was 5.78 µM (inactive); in experiment [14], 3.33 µM (inactive); in [17], 5.08 µM (inactive); in experiment [15], > 10 µM (inactive).
With `C/C(=N\NC(=O)c1ccncc1)c1cccc(F)c1`, the GI50 is more than 10 µM in experiment [1]; > 10 µM (inactive) in experiment [2]; > 10 µM (inactive) in [3]; > 10 µM (inactive) in experiment [4]; > 10 µM (inactive) in experiment [6]; > 10 µM (inactive) in [16]. Moreover, the GI50 in experiment [7], in experiment [9], in experiment [10], in experiment [11], in experiment [12] and in experiment [13] was > 10 µM (inactive) each time. For the same compound, the GI50 in [14], in [17] and in experiment [15] was > 10 µM (inactive) each time.
On to `O=C1c2ccccc2CC12CCC1(CC2)OCCO1`, for which the GI50 in [1] was more than 100 µM; in experiment [2], > 100 µM (inactive); in experiment [3], > 100 µM (inactive); in [4], > 100 µM (inactive); in [5] it was > 100 µM (inactive); in experiment [6] it was 97.9 µM (inactive). In addition, the GI50 in experiment [16], in experiment [7], in experiment [8], in [9], in experiment [10] and in experiment [11] was > 100 µM (inactive) each time. The GI50 in experiment [12], in [13], in experiment [14] and in experiment [15] was > 100 µM (inactive) each time.
